Experimental data as given in PubChem BioAssay (NCI).
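Dose response: 5 concentrations. Exposure: 48 h. Format: 96-well plates. Endpoint: linear interpolation; highest concentration if not reached. Definition used: TGI = concentration required for complete inhibition of growth.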

How the values were obtained:
Experiment in all cases: NCI-60 cell line screen, 48 h
[1] = system: 786-0 renal
[2] = system: A498 renal
[3] = system: A549 NSCLC
[4] = system: ACHN renal
[5] = system: CAKI-1 renal
[6] = system: CCRF-CEM leukemia
[7] = system: COLO 205 colon
[8] = system: DLD-1 colon
[9] = system: DMS 114 small cell lung
[10] = system: DMS 273 small cell lung
[11] = system: EKVX NSCLC
[12] = system: HCC-2998 colon
[13] = system: HCT-116 colon
[14] = system: HCT-15 colon
[15] = system: HL-60(TB) leukemia
[16] = system: HOP-18 NSCLC
[17] = system: HOP-62 NSCLC
[18] = system: HT29 colon
[19] = system: IGROV1 ovarian
[20] = system: K-562 leukemia
[21] = system: KM12 colon
[22] = system: KM20L2 colon
[23] = system: LXFL 529 NSCLC
[24] = system: M14 melanoma
[25] = system: M19-MEL melanoma
[26] = system: MALME-3M melanoma
[27] = system: MOLT-4 leukemia
[28] = system: NCI-H23 lung
[29] = system: NCI-H460 lung
[30] = system: NCI-H522 lung
[31] = system: OVCAR-3 ovarian
[32] = system: OVCAR-4 ovarian
[33] = system: OVCAR-8 ovarian
[34] = system: RPMI-8226 leukemia
[35] = system: RXF 393 renal
[36] = system: SF-268 CNS
[37] = system: SF-539 CNS
[38] = system: SK-MEL-2 melanoma
[39] = system: SK-MEL-28 melanoma
[40] = system: SK-MEL-5 melanoma
[41] = system: SK-OV-3 ovarian
[42] = system: SN12C renal
[43] = system: SNB-19 CNS
[44] = system: SNB-75 CNS
[45] = system: SNB-78 CNS
[46] = system: SW-620 colon
[47] = system: TK-10 renal
[48] = system: U251 CNS
[49] = system: UACC-257 melanoma
[50] = system: UACC-62 melanoma
[51] = system: UO-31 renal
[52] = system: XF 498 CNS
[53] = system: HOP-92 NSCLC
[54] = system: LOX IMVI melanoma
[55] = system: NCI-H226 lung
[56] = system: OVCAR-5 ovarian
[57] = system: RXF-631 renal
[58] = system: SF-295 CNS
[59] = system: SR leukemia

SMILES: O/N=C1/C(=C/c2ccc3c(c2)OCO3)CCCC1C(NO)c1ccc2c(c1)OCO2 (stereo not given)
- TGI [1]: 96.3 µM
- TGI [2]: 79 µM
- TGI [3]: 95.4 µM
- TGI [4]: > 100 µM
- TGI [5]: 94.6 µM
- TGI [6]: 53 µM
- TGI [7]: 64.9 µM
- TGI [8]: 98.8 µM
- TGI [9]: 60.7 µM
- TGI [10]: 47.3 µM
- TGI [11]: 89.1 µM
- TGI [12]: 55.5 µM
- TGI [13]: 31.9 µM
- TGI [14]: 83.8 µM
- TGI [15]: 36.4 µM
- TGI [16]: 42.5 µM
- TGI [17]: 53.7 µM
- TGI [18]: 30.4 µM
- TGI [19]: 86.5 µM
- TGI [20]: 71 µM
- TGI [21]: 43.6 µM
- TGI [22]: 34.6 µM
- TGI [23]: 51.4 µM
- TGI [24]: 36.9 µM
- TGI [25]: 62 µM
- TGI [26]: 48.2 µM
- TGI [27]: 42.5 µM
- TGI [28]: 72.5 µM
- TGI [29]: 71.1 µM
- TGI [30]: 40.2 µM
- TGI [31]: 30.6 µM
- TGI [32]: 75.1 µM
- TGI [33]: 67.1 µM
- TGI [34]: 40.9 µM
- TGI [35]: 55 µM
- TGI [36]: > 100 µM
- TGI [37]: 32.4 µM
- TGI [38]: 48.1 µM
- TGI [39]: 40.1 µM
- TGI [40]: 32.3 µM
- TGI [41]: 94 µM
- TGI [42]: 40.9 µM
- TGI [43]: > 100 µM
- TGI [44]: 80.1 µM
- TGI [45]: 87.7 µM
- TGI [46]: > 100 µM
- TGI [47]: 71.6 µM
- TGI [48]: 45.1 µM
- TGI [49]: 33.9 µM
- TGI [50]: 39.8 µM
- TGI [51]: 58.5 µM
- TGI [52]: 62.2 µM

SMILES: CCN(CC)CCNc1ccc2nnn3c4ccc(C)cc4c(=O)c1c23
- TGI [1]: 18.6 µM
- TGI [2]: 29.3 µM
- TGI [3]: 19.3 µM
- TGI [4]: 21.3 µM
- TGI [5]: 34.9 µM
- TGI [6]: 25.6 µM
- TGI [7]: 20.6 µM
- TGI [8]: 25.9 µM
- TGI [9]: 21.3 µM
- TGI [13]: 15 µM
- TGI [14]: 22.4 µM
- TGI [15]: 16.8 µM
- TGI [17]: 28.9 µM
- TGI [53]: 20.7 µM
- TGI [18]: 16.1 µM
- TGI [19]: 26.4 µM
- TGI [20]: 25.9 µM
- TGI [21]: 16.9 µM
- TGI [22]: 19.3 µM
- TGI [54]: 14.8 µM
- TGI [23]: 24.5 µM
- TGI [24]: 26.4 µM
- TGI [25]: 27.8 µM
- TGI [26]: 25.7 µM
- TGI [27]: 12.2 µM
- TGI [55]: 23.9 µM
- TGI [28]: 24.7 µM
- TGI [29]: 13.9 µM
- TGI [30]: 20.5 µM
- TGI [31]: 29.9 µM
- TGI [32]: 25.2 µM
- TGI [56]: 21.4 µM
- TGI [33]: 20.9 µM
- TGI [34]: 21.6 µM
- TGI [57]: 18.4 µM
- TGI [36]: 22.3 µM
- TGI [58]: 18 µM
- TGI [37]: 18.7 µM
- TGI [38]: 27.1 µM
- TGI [39]: 28.9 µM
- TGI [40]: 22.5 µM
- TGI [41]: 25.8 µM
- TGI [42]: 22.3 µM
- TGI [43]: 27.4 µM
- TGI [44]: 23.2 µM
- TGI [45]: 26.1 µM
- TGI [59]: 13.1 µM
- TGI [46]: 17.2 µM
- TGI [47]: 28.8 µM
- TGI [48]: 24.7 µM
- TGI [49]: 26.5 µM
- TGI [50]: 27.1 µM
- TGI [51]: 22.2 µM
